Measured values taken from PubChem BioAssay (NCI).
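Following 48 hours of exposure in 96-well plates, responses at five concentrations were used to interpolate endpoints linearly. The concentration for full growth arrest is given as TGI.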

Key:
Assay in all cases: growth of human tumour cells (NCI), 48 h
OVCAR-3 ovarian = tested on: OVCAR-3 ovarian
TK-10 renal = tested on: TK-10 renal
K-562 leukemia = tested on: K-562 leukemia
DMS 273 small cell lung = tested on: DMS 273 small cell lung
A498 renal = tested on: A498 renal
SN12C renal = tested on: SN12C renal
RXF 393 renal = tested on: RXF 393 renal
RPMI-8226 leukemia = tested on: RPMI-8226 leukemia
EKVX NSCLC = tested on: EKVX NSCLC
U251 CNS = tested on: U251 CNS
SK-MEL-28 melanoma = tested on: SK-MEL-28 melanoma
CAKI-1 renal = tested on: CAKI-1 renal
SK-MEL-5 melanoma = tested on: SK-MEL-5 melanoma
HCT-116 colon = tested on: HCT-116 colon
HL-60(TB) leukemia = tested on: HL-60(TB) leukemia
HOP-92 NSCLC = tested on: HOP-92 NSCLC
CCRF-CEM leukemia = tested on: CCRF-CEM leukemia
HOP-62 NSCLC = tested on: HOP-62 NSCLC
HCC-2998 colon = tested on: HCC-2998 colon
SNB-78 CNS = tested on: SNB-78 CNS
ACHN renal = tested on: ACHN renal
SR leukemia = tested on: SR leukemia
IGROV1 ovarian = tested on: IGROV1 ovarian
KM12 colon = tested on: KM12 colon
786-0 renal = tested on: 786-0 renal
HOP-18 NSCLC = tested on: HOP-18 NSCLC
NCI-H522 lung = tested on: NCI-H522 lung
HT29 colon = tested on: HT29 colon
NCI-H460 lung = tested on: NCI-H460 lung
UACC-257 melanoma = tested on: UACC-257 melanoma
A549 NSCLC = tested on: A549 NSCLC
HCT-15 colon = tested on: HCT-15 colon
MOLT-4 leukemia = tested on: MOLT-4 leukemia
MALME-3M melanoma = tested on: MALME-3M melanoma
SF-268 CNS = tested on: SF-268 CNS
LOX IMVI melanoma = tested on: LOX IMVI melanoma
LXFL 529 NSCLC = tested on: LXFL 529 NSCLC
SF-539 CNS = tested on: SF-539 CNS
SK-MEL-2 melanoma = tested on: SK-MEL-2 melanoma
M14 melanoma = tested on: M14 melanoma
SNB-75 CNS = tested on: SNB-75 CNS
SF-295 CNS = tested on: SF-295 CNS
OVCAR-8 ovarian = tested on: OVCAR-8 ovarian
NCI-H226 lung = tested on: NCI-H226 lung
UO-31 renal = tested on: UO-31 renal
UACC-62 melanoma = tested on: UACC-62 melanoma
KM20L2 colon = tested on: KM20L2 colon
DMS 114 small cell lung = tested on: DMS 114 small cell lung
NCI-H23 lung = tested on: NCI-H23 lung
SK-OV-3 ovarian = tested on: SK-OV-3 ovarian
OVCAR-4 ovarian = tested on: OVCAR-4 ovarian
DLD-1 colon = tested on: DLD-1 colon
SW-620 colon = tested on: SW-620 colon
OVCAR-5 ovarian = tested on: OVCAR-5 ovarian
M19-MEL melanoma = tested on: M19-MEL melanoma
COLO 205 colon = tested on: COLO 205 colon
SNB-19 CNS = tested on: SNB-19 CNS
XF 498 CNS = tested on: XF 498 CNS

Measured: TGI

Cc1cccc(NC(=O)C(=O)C2C(=O)NC(=O)NC2=O)c1C
> 100 µM: OVCAR-3 ovarian | TK-10 renal | K-562 leukemia | DMS 273 small cell lung | A498 renal | SN12C renal | RXF 393 renal | RPMI-8226 leukemia | EKVX NSCLC | U251 CNS | SK-MEL-28 melanoma | CAKI-1 renal | SK-MEL-5 melanoma | HCT-116 colon | HL-60(TB) leukemia | HOP-92 NSCLC | CCRF-CEM leukemia | HOP-62 NSCLC | HCC-2998 colon | SNB-78 CNS | ACHN renal | SR leukemia | IGROV1 ovarian | KM12 colon | 786-0 renal | HOP-18 NSCLC | NCI-H522 lung | HT29 colon | NCI-H460 lung | UACC-257 melanoma | A549 NSCLC | HCT-15 colon | MOLT-4 leukemia | MALME-3M melanoma | SF-268 CNS | LOX IMVI melanoma | LXFL 529 NSCLC | SF-539 CNS | SK-MEL-2 melanoma | M14 melanoma | SNB-75 CNS | SF-295 CNS | OVCAR-8 ovarian | NCI-H226 lung | UO-31 renal | UACC-62 melanoma | KM20L2 colon | DMS 114 small cell lung | NCI-H23 lung | SK-OV-3 ovarian | OVCAR-4 ovarian | DLD-1 colon | SW-620 colon | OVCAR-5 ovarian | M19-MEL melanoma | COLO 205 colon | SNB-19 CNS

CC(C)[C@@H]1C=C(c2ccccc2)c2ccccc2C1C(C#N)(C#N)C(C)C (stereo partly drawn)
> 100 µM: OVCAR-3 ovarian | TK-10 renal | K-562 leukemia | DMS 273 small cell lung | A498 renal | SN12C renal | RXF 393 renal | RPMI-8226 leukemia | EKVX NSCLC | U251 CNS | SK-MEL-28 melanoma | SK-MEL-5 melanoma | HCT-116 colon | HL-60(TB) leukemia | HOP-92 NSCLC | CCRF-CEM leukemia | HOP-62 NSCLC | HCC-2998 colon | SNB-78 CNS | ACHN renal | SR leukemia | IGROV1 ovarian | KM12 colon | 786-0 renal | HOP-18 NSCLC | HT29 colon | NCI-H460 lung | UACC-257 melanoma | A549 NSCLC | HCT-15 colon | MOLT-4 leukemia | MALME-3M melanoma | SF-268 CNS | LOX IMVI melanoma | LXFL 529 NSCLC | SF-539 CNS | SK-MEL-2 melanoma | M14 melanoma | XF 498 CNS | SNB-75 CNS | SF-295 CNS | OVCAR-8 ovarian | NCI-H226 lung | UO-31 renal | UACC-62 melanoma | KM20L2 colon | DMS 114 small cell lung | NCI-H23 lung | SK-OV-3 ovarian | OVCAR-4 ovarian | DLD-1 colon | SW-620 colon | OVCAR-5 ovarian | M19-MEL melanoma | COLO 205 colon | SNB-19 CNS
